Assay results: patent publication US20140005214A1, “PIPERIDINONE CARBOXAMIDE SPIROHYDANTOIN CGRP RECEPTOR ANTAGONISTS” (priority 2011, published 2014)
pKi: −log10 of the molar value.

Each molecule was assayed against T1, recombinant human CL receptor/RAMP1 (Homo sapiens, UniProt O60894+Q16602) (assay: Recombinant receptor binding assay (125I-hCGRP)). Conditions: membranes of HEK 293 cells expressing recombinant human CL receptor/RAMP1; 10 pM 125I-hCGRP.
T1 construct: expressed in transfected cells; membranes
T1 sequence (Q16602 23-461): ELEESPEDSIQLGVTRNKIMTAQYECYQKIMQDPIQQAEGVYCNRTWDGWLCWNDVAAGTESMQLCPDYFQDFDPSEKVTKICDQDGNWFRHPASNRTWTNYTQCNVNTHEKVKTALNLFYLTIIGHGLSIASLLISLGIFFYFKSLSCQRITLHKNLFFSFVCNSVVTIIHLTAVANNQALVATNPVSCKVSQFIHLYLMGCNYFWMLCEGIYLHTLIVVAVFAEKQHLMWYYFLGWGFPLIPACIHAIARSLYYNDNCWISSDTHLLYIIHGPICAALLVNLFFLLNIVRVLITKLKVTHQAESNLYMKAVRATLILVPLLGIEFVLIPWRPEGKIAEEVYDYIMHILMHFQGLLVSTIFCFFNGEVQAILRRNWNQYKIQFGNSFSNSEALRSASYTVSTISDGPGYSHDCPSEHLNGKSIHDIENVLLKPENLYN
T1 sequence (O60894 27-148): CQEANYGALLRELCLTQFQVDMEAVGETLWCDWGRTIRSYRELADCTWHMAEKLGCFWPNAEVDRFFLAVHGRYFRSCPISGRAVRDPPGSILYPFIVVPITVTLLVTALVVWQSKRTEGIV
Description: RECOMBINANT RECEPTOR: Human CL receptor (Genbank accession number L76380) was subcloned into the expression vector pIREShyg2 (BD Biosciences Clontech) as a 5′NheI and 3′ PmeI fragment. Human RAMP1 (Genbank accession number AJ001014) was subcloned into the expression vector pIRESpuro2 (BD Biosciences Clontech) as a 5′NheI and 3′NotI fragment. HEK 293 cells (human embryonic kidney cells; ATCC #CRL-1573) were cultured in DMEM with 4.5 g/L glucose, 1 mM sodium pyruvate and 2 mM glutamine supplemented with 10% fetal bovine serum (FBS), 100 units/mL penicillin and 100 μg/mL streptomycin, and maintained at 37° C. and 95% humidity. Cells were subcultured by treatment with 0.25% trypsin with 0.1% EDTA in HBSS. Stable cell line generation was accomplished by co-transfecting 10 μg of DNA with 30 μg Lipofectamine 2000 (Invitrogen) in 75 cm^2 flasks. CL receptor and RAMP1 expression constructs were co-transfected in equal amounts. Twenty-four hours after transfection the cells were diluted and selective medium (growth medium+[…] hygromycin and 1 μg/mL puromycin) was added the following day. A clonal cell line was generated by single cell deposition utilizing a FACS Vantage SE (Becton Dickinson). Growth medium was adjusted to 150 μg/mL hygromycin and 0.5 μg/mL puromycin for cell propagation.
RECOMBINANT RECEPTOR BINDING ASSAY: Cells expressing recombinant human CL receptor/RAMP1 were washed with PBS and harvested in harvest buffer containing 50 mM HEPES, 1 mM EDTA and Complete™ protease inhibitors (Roche). The cell suspension was disrupted with a laboratory homogenizer and centrifuged at 48,000 g to isolate membranes. The pellets were resuspended in harvest buffer plus 250 mM sucrose and stored at −70° C. For binding assays, 20 μg of membranes were incubated in 1 mL binding buffer (10 mM HEPES, pH 7.4, 5 mM MgCl2, and 0.2% BSA) for 3 h at room temperature containing 10 pM ^125I-hCGRP (GE Healthcare) and antagonist. The assay was terminated by filtration through 96-well GFB glass fiber filter plates (PerkinElmer) that had been blocked with 0.05% polyethyleneimine. The filters were washed 3 times with ice-cold assay buffer (10 mM HEPES, pH 7.4, and 5 mM MgCl2). Scintillation fluid was added and the plates were counted on a Topcount (Packard). Non-specific binding was determined and the data analysis was carried out with the apparent dissociation constant (Ki) determined by using a non-linear least squares fitting the bound CPM data to the equation below: […]
Where Y is observed CPM bound, Ymax is total bound counts, Ymin is non specific bound counts, (Ymax−Ymin) is specific bound counts, % Imax is the maximum percent inhibition, % I min is the minimum percent inhibition, radiolabel is the probe, and the Kd is the apparent dissociation constant for the radioligand for the receptor as determined by hot saturation experiments.

Point of comparison: `Cc1c(F)cccc1[C@@H]1C[C@H](NC(=O)c2ccc3c(c2)C[C@@]2(C3)C(=O)NC(=O)N2C)C(=O)N(CC(F)(F)F)[C@@H]1C` [Example 7], pKi 9.30. Against it:
- C[C@@H]1[C@H](c2cc(F)cc(F)c2F)C[C@H](NC(=O)c2ccc3c(c2)C[C@@]2(C3)C(=O)NC(=O)N2C)C(=O)N1CC(F)(F)F [Example 1, (4S)-3-Methyl-N-[(3S,5S,6R)-6-methyl-2-oxo-1-(2,2,2-trifluoroethyl)-5-(2,3,5-trifluorophenyl)piperidin-3-yl]-2,5-dioxo-1′,3′-dihydrospiro[imidazolidine-4,2′-indene]-5′-carboxamide] — 1.08 log units higher, 10.38
- C[C@@H]1[C@H](c2c(F)ccc(F)c2F)C[C@H](NC(=O)c2ccc3c(c2)C[C@@]2(C3)C(=O)NC(=O)N2C)C(=O)N1CC(F)(F)F [Example 2] — 1.02 log units higher, 10.32
- C[C@@H]1[C@H](c2ccccc2)C[C@H](NC(=O)c2ccc3c(c2)C[C@@]2(C3)C(=O)NC(=O)N2C)C(=O)N1CC(F)(F)F [Example 3] — within 0.2 log units, 9.44
- C[C@@H]1[C@H](c2c(F)c(F)cc(F)c2F)C[C@H](NC(=O)c2ccc3c(c2)C[C@@]2(C3)C(=O)NC(=O)N2C)C(=O)N1CC(F)(F)F [Example 4] — 1.14 log units higher, 10.44
- Cc1ccccc1[C@@H]1C[C@H](NC(=O)c2ccc3c(c2)C[C@@]2(C3)C(=O)NC(=O)N2C)C(=O)N(CC(F)(F)F)[C@@H]1C [Example 5] — 0.58 log units lower, 8.72
- Cc1cccc([C@@H]2C[C@H](NC(=O)c3ccc4c(c3)C[C@@]3(C4)C(=O)NC(=O)N3C)C(=O)N(CC(F)(F)F)[C@@H]2C)c1 [Example 6] — 0.56 log units lower, 8.74
